Earlier results in patent US20240050531A1, “A METHOD FOR REVERSING AGING BRAIN FUNCTIONAL DECLINE” (THE CHINESE UNIVERSITY OF HONG KONG, priority 2020, published 2024).
Like-named read-outs stand apart in the source and are kept apart here.

Key:
GLP-1R = molecular target: T1, GLP-1R (Rattus norvegicus, UniProt P32301)
T1 construct: host or cells: living rats (8 weeks old), endogenous receptor
T1 sequence (P32301 22-463): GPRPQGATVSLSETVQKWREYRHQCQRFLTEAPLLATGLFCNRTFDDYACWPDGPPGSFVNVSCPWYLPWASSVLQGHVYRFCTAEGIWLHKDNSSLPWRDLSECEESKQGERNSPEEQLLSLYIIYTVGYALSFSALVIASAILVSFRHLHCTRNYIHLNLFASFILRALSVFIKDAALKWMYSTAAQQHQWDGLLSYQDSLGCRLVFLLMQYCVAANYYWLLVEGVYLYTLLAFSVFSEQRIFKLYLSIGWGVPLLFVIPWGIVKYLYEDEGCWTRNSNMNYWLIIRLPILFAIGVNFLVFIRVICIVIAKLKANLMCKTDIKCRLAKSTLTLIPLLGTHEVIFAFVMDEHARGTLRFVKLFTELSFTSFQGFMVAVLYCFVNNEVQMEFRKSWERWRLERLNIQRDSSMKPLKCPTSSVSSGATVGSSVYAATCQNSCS

[1] = intraperitoneal (i.p.) injection

Row | Substance | associative and spatial learning (GLP-1R; intracerebroventricular (i.c.v) administration, 8 weeks old rats) | associative and spatial learning (GLP-1R; peripheral administration) | hippocampus-associated reference memory performance [1] | immobility in the forced swim test [1]
1 | [Ser(2)]exendin(1-9) | enhance associative and spatial learning | also active | – | –
2 | exendin-4 | – | – | improves | decreases immobility
